The values that follow come from patent publication US4950676A, “Amino-esters of dihydropyridines, and their use as circulatory agents for treating ischaemic heart diseases” (Bayer Aktiengesellschaft, priority 1986, dated 1990).

The test system of assay [1] is anaesthetized cats. The note with it: statement on known substances; in words; cited from earlier work.
For assay [2], the system named is hypertensive rats. The assay can be described thus: arterial blood pressure of conscious spontaneously hypertensive rats (tail cuff) after oral administration. Type of assay: in vivo, rat (spontaneously hypertensive rats of the Okamoto strain). To be noted: Rattus norvegicus, peroral, read-out: ED20 (reduction in blood pressure in hypertensive rats by 20 mm Hg). How it is done: The compounds according to the invention are also active after oral administration. The arterial blood pressure of conscious rats with hypertension of genetic origin ("spontaneously hypertensive rats" of the Okamoto strain) is measured bloodlessly with a "tail cuff" at defined intervals of time after administration of the substance. The substances to be tested are suspended in a Tylose suspension and administered intragastrally ("orally") in various doses by means of a stomach tube. The compounds according to the invention reduce the arterial blood pressure of hypertensive rats in a clinically relevant dosage (see Table 3).
Table 3: Reduction in blood pressure in hypertensive rats by 20 mm Hg (ED20)

The test system of assay [3] is isolated aortic ring. Briefly: contraction of isolated rabbit aortic ring stimulated by KCl depolarization (calcium-antagonistic action). To be noted: Oryctolagus cuniculus, isolated aortic ring from rabbits, read-out: IC50 a (active compound concentration at which the contraction of the aortic ring is inhibited by 50%). From the text: (§1) The specific calcium-antagonistic action of the compounds according to the invention is examined in a test on isolated rabbit vessels (aorta). In this test, contractions of the vascular muscle are caused in vitro by stimulation with KCl or by noradrenaline. KCl causes contractions due to the depolarization-dependent inwards flow of calcium ions.
(§2) These contractions are inhibited by calcium-antagonistic drugs as a function of the dose. Noradrenaline causes contractions by stimulation of the vascular alpha-receptors and the resulting release of calcium ions from the intracellular stores. The noradrenaline-induced contractions are not inhibited by specific calcium antagonists. In contrast, antagonists of the alpha-adrenoreceptors inhibit only the noradrenaline-induced contraction.
(§3) Table 1: Active compound concentration at which the contraction of the aortic ring is inhibited by 50% (IC50)
(§4) Isolated aortic ring from rabbits, stimulated
(a) by KCl depolarization or […]

Assay [4] relates to isolated aortic ring. Briefly: contraction of isolated rabbit aortic ring stimulated by noradrenaline (alpha-receptor). The note with it: Oryctolagus cuniculus, isolated aortic ring from rabbits, read-out: IC50 b (active compound concentration at which the contraction of the aortic ring is inhibited by 50%).
Source text: as §1, §2, §3, §4

Assay [5] deals with anaesthetized cats. The assay can be described thus: vein volume of an extremity by plethysmography with simultaneous arterial blood pressure recording in anaesthetized cats. The class given is in vivo, cat. The note with it: Felis catus, iv; anaesthetized cats (ketamine), i.v., in comparison with the reference sodium nitroprusside; read-out: Dose giving significant increase in vein capacity. How it is done:
The vein volume of an extremity is measured by plethysmography on anaesthetized cats (ketamine). The arterial blood pressure is also recorded at the same time. Calcium-antagonistic DHP derivatives known hitherto reduce the arterial blood pressure and reduce the vein volume by reflectory vein constriction.
Table 2: Significant increase in vein capacity in anaesthetized cats in comparison with the reference active substance sodium nitroprusside.

In brackets after ≈: the same amount, converted by molar mass.

As for `COC(=O)[C@@H]1[C@H]2C[C@H]3c4[nH]c5ccccc5c4CCN3C[C@@H]2CC[C@@H]1O` [yohimbine], the “vein volume (known substances)” value in assay [1] was “increase in the vein volume”.

As to `COc1ccc2c(c1OC)CCN1CCC(NCCCOC(=O)C3=C(C)NC(C)=C(C(=O)OC(C)C)C3c3cccc([N+](=O)[O-])c3)CC21` (stereo not drawn) [Example 7, 3-Isopropyl 5-[3-(1,3,4,6,7,11b-hexahydro-8,9-dimethoxy-2H-benzo[a]quinolizin-2-yl-amino)propyl]1,4-dihydro-2,6-dimethyl-4-(3-nitrophenyl)pyridine-3,5-dicarboxylate], the ED (20 mm Hg) in assay [2] is 31.5 mg/kg. Besides, the IC50 turned out to be 0.5 µg/mL (≈ 0.754 µM) in assay [3] and 1.4 µg/mL (≈ 2.11 µM) in assay [4].

Take `COC(=O)C1=C(C)NC(C)=C(C(=O)OCCN(C)CC2COc3ccccc3O2)C1c1cccc([N+](=O)[O-])c1` (stereo not drawn) [Example 11, 3-Methyl 5-{2-[N-(1,4-benzodioxan-2-yl-methyl)-N-methylamino]ethyl}1,4-dihydro-2,6-dimethyl-4-(3-nitrophenyl)pyridine-3,5-dicarboxylate]: the minimal effective dose in assay [5] came to 0.1 mg/kg. Further, in assay [2], the ED (20 mm Hg) was 3 mg/kg. The values for the IC50 in assay [3] and in assay [4] were 0.23 µg/mL (≈ 0.428 µM) and 0.18 µg/mL (≈ 0.335 µM), respectively.

As to `CC1=C(C(=O)OCCN(CCN(Cc2ccccc2)C(C)COc2ccccc2)CCN(Cc2ccccc2)C(C)COc2ccccc2)C(c2cccc([N+](=O)[O-])c2)C(C(=O)OC(C)C)=C(C)N1` (stereo not drawn) [Example 4, 3-Isopropyl 5-(2-[bis-[2-[N-benzyl-N-(2-phenoxy-1-methylethyl)amino]ethyl]amino]ethyl}1,4-dihydro-2,6-dimethyl-4-(3-nitrophenyl)-pyridine-3,5-dicarboxylate], the IC50 in assay [3] is 0.4 µg/mL (≈ 0.426 µM); in assay [4], 5 µg/mL (≈ 5.33 µM).

On to `Cc1ccc(N(CC2=NCCN2)c2cccc(O)c2)cc1` [phentolamine], for which the “vein volume (known substances)” value in assay [1] is recorded as “increase in the vein volume”.

As to `CC1=C(C(=O)OCCNCCN(Cc2ccccc2)C(C)COc2ccccc2)C(c2cccc([N+](=O)[O-])c2)C(C(=O)OC(C)C)=C(C)N1` (stereo not drawn) [Example 3, 3-Isopropyl 5-{2-[2-[N-benzyl-N-(2-phenoxy-1-methylethyl)amino]ethylamino]ethyl}1,4-dihydro-2,6-dimethyl-4-(3-nitrophenyl)pyridine-3,5-dicarboxylate], the IC50 in assay [3] is 0.23 µg/mL (≈ 0.343 µM); in assay [4], greater than 10 µg/mL.

As to `COC(=O)C1=C(C)NC(C)=C(C(=O)OCCNCC2COc3ccccc3O2)C1c1cccc([N+](=O)[O-])c1` (stereo not drawn) [Example 13, 3-Methyl 5-[2-(1,4-benzodioxan-2-yl-methylamino)ethyl]1,4-dihydro-2,6-dimethyl-4-(3-nitrophenyl)pyridine-3,5-dicarboxylate], in assay [2], the ED (20 mm Hg) came out at 3 mg/kg. Further, the IC50 in assay [3] was determined as 0.08 µg/mL (≈ 0.153 µM); in assay [4], 0.7 µg/mL (≈ 1.34 µM).

As to `CC1=C(C(=O)OCCNCC2COc3ccccc3O2)C(c2cccc([N+](=O)[O-])c2)C(C(=O)OC(C)C)=C(C)N1` (stereo not drawn) [Example 12, 3-Isopropyl 5-[2-(1,4-benzodioxan-2-yl-methylamino)ethyl]1,4-dihydro-2,6-dimethyl-4-(3-nitrophenyl)pyridine-3,5-dicarboxylate], the minimal effective dose in assay [5] worked out at 0.1 mg/kg. Also, the values for the IC50 in assay [3] and in assay [4] were 0.016 µg/mL (≈ 0.029 µM) and 0.4 µg/mL (≈ 0.725 µM), respectively.

For the compound `COC(=O)C1=C(C)NC(C)=C(C(=O)OCCCCCCN(CCN(Cc2ccccc2)C(C)COc2ccccc2)CCN(Cc2ccccc2)C(C)COc2ccccc2)C1c1cccc([N+](=O)[O-])c1` (stereo not drawn) [Example 2, 3-Methyl 5-{6-[bis-[2-[N-benzyl-N-(2-phenoxy-1-methylethyl)amino]ethyl]amino]hexyl}1,4-dihydro-2,6-dimethyl-4-(3-nitrophenyl)-pyridine-3,5-dicarboxylate], the IC50 in assay [3] amounted to 0.9 µg/mL (≈ 0.931 µM); in assay [4] it was 3 µg/mL (≈ 3.1 µM).

Consider `COC(=O)C1=C(C)NC(C)=C(C(=O)OCCNC2CCN3CCc4c(ccc(OC)c4OC)C3C2)C1c1cccc([N+](=O)[O-])c1` (stereo not drawn) [Example 6], for which the ED (20 mm Hg) in assay [2] amounted to 1 mg/kg. Also, the figures for the IC50 in assay [3] and in assay [4] were 0.26 µg/mL (≈ 0.419 µM) and 0.36 µg/mL (≈ 0.58 µM), respectively.

As to `COc1ccc2c(c1OC)CCN1CCC(NCCOC(=O)C3=C(C)NC(C)=C(C(=O)OC(C)C)C3c3cccc([N+](=O)[O-])c3)CC21` (stereo not drawn) [Example 8, 3-Isopropyl 5-[2-(1,3,4,6,7,11b-hexahydro-8,9-dimethoxy-2H-benzo[a]quinolizin-2-yl-amino)ethyl]1,4-dihydro-2,6-dimethyl-4-(3-nitrophenyl)pyridine-3,5-dicarboxylate], the ED (20 mm Hg) in assay [2] is 31.5 mg/kg. Moreover, the results for the IC50 in assay [3] and in assay [4] were 0.3 µg/mL (≈ 0.462 µM) and 1.6 µg/mL (≈ 2.47 µM), respectively.

Regarding `COC(=O)C1=C(C)NC(C)=C(C(=O)OCCCCCCNCCN(Cc2ccccc2)C(C)COc2ccccc2)C1c1cccc([N+](=O)[O-])c1` (stereo not drawn) [Example 1, 3-Methyl 5-{6-[2-[N-benzyl-N-(2-phenoxy-1-methylethyl)amino]ethylamino]hexyl}1,4-dihydro-2,6-dimethyl-4-(3-nitrophenyl)-pyridine-3,5-dicarboxylate], the figures for the IC50 in assay [3] and in assay [4] were 0.23 µg/mL (≈ 0.329 µM) and greater than 10 µg/mL, respectively.

As for `COc1ccc2c(c1)CCN1CCC(NCCOC(=O)C3=C(C)NC(C)=C(C(=O)OC(C)C)C3c3cccc([N+](=O)[O-])c3)CC21` (stereo not drawn) [Example 9, 3-Isopropyl 5-[2-(1,3,4,6,7,11b-hexahydro-9-methoxy-2H-benzo[a]quinolizin-2-yl)amino]ethyl 1,4-dihydro-2,6-dimethyl-4-(3-nitrophenyl)pyridine-3,5-dicarboxylate], the minimal effective dose in assay [5] is 1 mg/kg.
